# Assays:
# HIV-1IIIB = assay: HIV MTS cytoprotection assay in CEM-SS cells; assay type: cell-based, human immunodeficiency virus-1; settings: 6 days post-infection, concentration inhibiting virus replication by 50%
# HCV RNA replicon ET = assay: HCV RNA replicon luciferase reporter assay, antiviral activity; assay type: cell-based; settings: ET replicon cells, 72 h, LUC activity; for EC50: concentration reducing viral replication by 50%; for EC90: concentration reducing viral replication by 90%
# [1] = system: human hepatoma cell line ET; assay: Cytotoxicity in the replicon cell line, colorimetric assay of cell numbers; settings: ET cells, 72 h; for IC50: read-out: Cytotoxicity IC50, concentration inhibiting cell viability by 50%; for IC90: read-out: Cytotoxicity IC90, concentration inhibiting cell viability by 90%
# From the text: Compounds were examined in the human hepatoma cell line ET (lub ubi heo/ET), a HCV RNA replicon containing a stable luciferase (LUC) reporter. The HCV RNA replicon ET contains the 5′ end of HCV (with the HCV Internal Ribosome Entry Site (IRES) and the first few amino acids of the HCV core protein) which drives the production of a firefly luciferase (LUC), ubiquitin, and neomycin phosphotransferase (NeoR) fusion protein. Ubiquitin cleavage releases the LUC and NeoR proteins. The EMCV IRES element controls the translation of the HCV […] NS3-NS5. The NS3 protein cleaves the HCV polyprotein to release the mature NS3, NS4A, NS4B, NS5A and NS5B proteins that are required for HCV replication. At the 3′ end of the replicon is the authentic 3′ NTR of HCV. The activity of the LUC reporter is directly proportional to HCV replication levels and positive-control antiviral compounds produce a reproducible antiviral response using the LUC endpoint.
# The compounds were dissolved in DMSO at five half-log concentrations each, ranging from either 0.02 to 2.0 μM, 0.03 to 3 μM, […], or 1 to 100 μM. Subconfluent cultures of the ET line were plated out into 96 well plates dedicated for the analysis of cell numbers (cytotoxicity) or antiviral activity and the next day the compounds were added to the appropriate wells. The cells were processed 72 h later when the cells were still subconfluent. […] The activity of the LUC reporter is directly proportional to HCV RNA levels in the human cell line. The HCV-replicon assay was validated in parallel experiments using interferon-alpha-2b as a positive control.
# CEM-SS cells = assay: Compound cytotoxicity in the HIV MTS assay (cells plus drug only); assay type: cell-based, human; settings: 50% inhibition of cell growth
# Protocol: In this MTS cytoprotection assay, each experiment included cell control wells (cells only), virus control wells (cells plus virus), drug toxicity wells (cells plus drug only), drug colorimetric control wells (drug only) as well as experimental wells (drug plus cells plus virus). […] HIV-1RF was added to each well in a volume of 50 μL, the amount of virus determined to give approximately 90% cell killing at 6 days post-infection. At assay termination, assay plates were stained with the soluble tetrazolium-based dye MTS (CellTiter 96 Reagent, Promega) to determine cell viability and quantify compound toxicity. MTS is metabolized by the mitochondria enzymes of metabolically active cells to yield a soluble formazan product, providing a quantitative analysis of cell viability and compound cytotoxicity. The assay was validated in parallel experiments using Zidovudine (3′-azido-3′-deoxythymidine or AZT) as a positive control.
compound,measurement,setting,value
"C=CCS[C@@H]1C(=O)N(C)[C@@H](CC(C)C)C(=O)N[C@@H](C(C)C)C(=O)N(C)[C@@H](CC(C)C)C(=O)N[C@@H](C)C(=O)N[C@H](C)C(=O)N(C)[C@@H](CC(C)C)C(=O)N(C)[C@@H](CC(C)C)C(=O)N(C)[C@@H](C(C)C)C(=O)N(C)[C@@H]([C@H](O)[C@H](C)C/C=C/C)C(=O)N[C@@H](CC)C(=O)N1C [Q, 3-propenylthiocyclosporin]",EC50,HIV-1IIIB,230 nM
same,EC50,HCV RNA replicon ET,210 nM
same,EC90,HCV RNA replicon ET,620 nM
same,IC50,[1],18900 nM
same,IC90,[1],> 20000 nM
same,IC50,CEM-SS cells,18900 nM
"C/C=C/C[C@@H](C)[C@@H](O)[C@H]1C(=O)N[C@@H](CC)C(=O)N(C)[C@H](SCCOC)C(=O)N(C)[C@@H](CC(C)C)C(=O)N[C@@H](C(C)C)C(=O)N(C)[C@@H](CC(C)C)C(=O)N[C@@H](C)C(=O)N[C@H](C)C(=O)N(C)[C@@H](CC(C)C)C(=O)N(C)[C@@H](CC(C)C)C(=O)N(C)[C@@H](C(C)C)C(=O)N1C [R, 3-[(2-methoxy)ethylthio]cyclosporin]",EC50,HIV-1IIIB,500 nM
same,EC50,HCV RNA replicon ET,310 nM
same,EC90,HCV RNA replicon ET,590 nM
same,IC50,[1],11100 nM
same,IC90,[1],> 20000 nM
same,IC50,CEM-SS cells,17300 nM
"C/C=C/C[C@@H](C)[C@@H](O)[C@H]1C(=O)N[C@@H](CC)C(=O)N(C)C(SC)C(=O)N(C)[C@@H](CC(C)(C)O)C(=O)N[C@@H](C(C)C)C(=O)N(C)[C@@H](CC(C)C)C(=O)N[C@@H](C)C(=O)N[C@H](C)C(=O)N(C)[C@@H](CC(C)C)C(=O)N(C)[C@@H](CC(C)C)C(=O)N(C)[C@@H](C(C)C)C(=O)N1C (some centres unmarked) [S, 3-(methylthio)-4-(gamma-hydroxymethylleucine)cyclosporin]",EC50,HIV-1IIIB,90 nM
same,EC90,HCV RNA replicon ET,160 nM
same,IC50,[1],> 2000 nM
same,IC90,[1],> 2000 nM
same,IC50,CEM-SS cells,14000 nM
"C=CCO[C@@H]1C(=O)N(C)[C@@H](CC(C)(C)O)C(=O)N[C@@H](C(C)C)C(=O)N(C)[C@@H](CC(C)C)C(=O)N[C@@H](C)C(=O)N[C@H](C)C(=O)N(C)[C@@H](CC(C)C)C(=O)N(C)[C@@H](CC(C)C)C(=O)N(C)[C@@H](C(C)C)C(=O)N(C)[C@@H]([C@H](O)[C@H](C)C/C=C/C)C(=O)N[C@@H](CC)C(=O)N1C [U, 3-(prop-2-ene-1-oxy)-4-(gamma-hydroxymethylleucine)cyclosporin]",EC50,HIV-1IIIB,110 nM
same,EC50,HCV RNA replicon ET,90 nM
same,EC90,HCV RNA replicon ET,450 nM
same,IC50,[1],> 2000 nM
same,IC90,[1],> 2000 nM
same,IC50,CEM-SS cells,13400 nM
"C/C=C/C[C@@H](C)[C@@H](O)[C@H]1C(=O)N[C@@H](CC)C(=O)N(C)C(OCCOC)C(=O)N(C)[C@@H](CC(C)(C)O)C(=O)N[C@@H](C(C)C)C(=O)N(C)[C@@H](CC(C)C)C(=O)N[C@@H](C)C(=O)N[C@H](C)C(=O)N(C)[C@@H](CC(C)C)C(=O)N(C)[C@@H](CC(C)C)C(=O)N(C)[C@@H](C(C)C)C(=O)N1C (some centres unmarked) [X, 3-[2-(methoxy)ethoxy]-4-(gamma-hydroxymethylleucine)cyclosporin]",EC50,HIV-1IIIB,1000 nM
same,EC50,HCV RNA replicon ET,480 nM
same,EC90,HCV RNA replicon ET,1500 nM
same,IC50,[1],> 2000 nM
same,IC90,[1],> 2000 nM
same,IC50,CEM-SS cells,> 20000 nM
"C/C=C/C[C@@H](C)[C@@H](O)[C@H]1C(=O)N[C@@H](CC)C(=O)N(C)[C@H](OCCCOC)C(=O)N(C)[C@@H](CC(C)(C)O)C(=O)N[C@@H](C(C)C)C(=O)N(C)[C@@H](CC(C)C)C(=O)N[C@@H](C)C(=O)N[C@H](C)C(=O)N(C)[C@@H](CC(C)C)C(=O)N(C)[C@@H](CC(C)C)C(=O)N(C)[C@@H](C(C)C)C(=O)N1C [Y, 3-[3-(methoxy)propoxy]-4-(gamma-hydroxymethylleucine)cyclosporin]",EC50,HIV-1IIIB,520 nM
same,EC50,HCV RNA replicon ET,300 nM
same,EC90,HCV RNA replicon ET,950 nM
same,IC50,[1],> 2000 nM
same,IC90,[1],> 2000 nM
same,IC50,CEM-SS cells,> 20000 nM
